Assay results from patent publication US9650339B2, “Inhibitors of histone demethylases” (Gilead Sciences, Inc., priority 2013, dated 2017).
pIC50: −log10 of the molar value.

What was measured:
Type in all cases: biochemical
[1] = molecular target: T1, KDM4B (JMJD2B) (Homo sapiens, UniProt O94953); assay: Histone lysine demethylase AlphaLISA assay, KDM4B; details: read-out: KDM4B HDME Inhibition IC50
T1 construct: 2-500; purchased BPS; host or cells: Bac (baculovirus system)
T1 sequence (O94953 2-500): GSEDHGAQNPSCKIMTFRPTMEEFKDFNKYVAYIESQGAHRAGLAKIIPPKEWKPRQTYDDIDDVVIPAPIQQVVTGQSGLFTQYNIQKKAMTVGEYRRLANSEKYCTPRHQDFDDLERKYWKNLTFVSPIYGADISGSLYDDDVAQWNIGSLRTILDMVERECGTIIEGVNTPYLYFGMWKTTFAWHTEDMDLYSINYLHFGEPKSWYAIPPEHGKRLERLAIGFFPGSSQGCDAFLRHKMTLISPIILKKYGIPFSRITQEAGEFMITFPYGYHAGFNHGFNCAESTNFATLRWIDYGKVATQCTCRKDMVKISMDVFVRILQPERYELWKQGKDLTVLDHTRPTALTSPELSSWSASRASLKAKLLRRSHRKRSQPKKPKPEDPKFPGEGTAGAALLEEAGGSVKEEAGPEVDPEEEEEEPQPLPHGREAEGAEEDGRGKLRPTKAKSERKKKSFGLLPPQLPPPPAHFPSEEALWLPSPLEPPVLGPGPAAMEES
Experimental: (§1) Assays are performed analogously to the protocol described by PerkinElmer (Roy et al. PerkinElmer Technical Note: AlphaLISA #12, April 2011)
(§2) Enzymes are dissolved in enzyme buffer and incubated for 10 min before being added to 3% DMSO solutions of compounds in enzyme buffer. Incubated for another 10 minutes, before substrate solution is added and the reaction mixture is incubated at room temperature. 10 μL acceptor beads, suspended in Epigenetic Buffer (Perkin Elmer AL008) from stock, are added and the suspension is incubated in the dark at room temperature, before a suspension of streptavidin donor beads (Perkin Elmer 6760002) in Epigenetic Buffer is added. After incubation at room temperature in the dark the plates are read.
BK9M3: Biotin-ARTKQTAR(KMe3)STGGKAPRKQ-NH2 (Caslo, Denmark) […]
(§3) Substrate Solution: Substrate, 25 μM L-Asc, and 10 μM α-KG in Buffer A.

[2] = molecular target: T2, KDM5B (PLU-1) (Homo sapiens, UniProt Q9UGL1); assay: Histone lysine demethylase AlphaLISA assay, KDM5B; details: read-out: KDM5B HDME Inhibition IC50
T2 sequence (Q9UGL1 1-809): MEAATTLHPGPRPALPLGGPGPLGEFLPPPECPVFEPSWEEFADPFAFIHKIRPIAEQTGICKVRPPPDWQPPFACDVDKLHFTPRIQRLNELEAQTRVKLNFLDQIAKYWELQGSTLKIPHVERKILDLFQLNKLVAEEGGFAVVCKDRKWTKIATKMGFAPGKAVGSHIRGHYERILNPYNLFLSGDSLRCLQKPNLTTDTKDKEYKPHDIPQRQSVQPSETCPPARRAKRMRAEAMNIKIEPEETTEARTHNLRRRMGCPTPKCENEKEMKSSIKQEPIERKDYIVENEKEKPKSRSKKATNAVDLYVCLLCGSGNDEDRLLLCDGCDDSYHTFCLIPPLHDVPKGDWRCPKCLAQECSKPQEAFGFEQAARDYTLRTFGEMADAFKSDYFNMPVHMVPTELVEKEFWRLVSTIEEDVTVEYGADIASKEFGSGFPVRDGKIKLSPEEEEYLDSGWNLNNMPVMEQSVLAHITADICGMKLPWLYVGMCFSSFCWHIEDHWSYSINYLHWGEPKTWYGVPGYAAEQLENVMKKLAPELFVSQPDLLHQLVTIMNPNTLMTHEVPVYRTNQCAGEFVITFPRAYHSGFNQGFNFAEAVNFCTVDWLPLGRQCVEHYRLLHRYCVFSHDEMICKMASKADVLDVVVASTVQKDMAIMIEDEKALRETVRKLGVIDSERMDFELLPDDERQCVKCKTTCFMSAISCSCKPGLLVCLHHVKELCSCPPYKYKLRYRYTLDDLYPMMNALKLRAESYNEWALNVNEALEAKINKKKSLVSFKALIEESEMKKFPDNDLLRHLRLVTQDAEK
How it was run: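 AlphaLISA demethylation readout: enzyme preincubated 10 min, then 10 min with compounds in 3% DMSO buffer, before biotinylated methyl-lysine histone peptide substrate with 25 μM L-Asc and 10 μM α-KG, room temperature. Acceptor beads then streptavidin donor beads added, dark incubation, plates read.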

[3] = molecular target: T3, KDM6B (JMJD3) (Homo sapiens, UniProt O15054); assay: Histone lysine demethylase AlphaLISA assay, KDM6B; details: read-out: KDM6B HDME Inhibition IC50
T3 construct: 1043-end; purchased BPS; host or cells: Bac (baculovirus system)
T3 sequence (O15054 1043-1682 isoform O15054-1 limits assumed): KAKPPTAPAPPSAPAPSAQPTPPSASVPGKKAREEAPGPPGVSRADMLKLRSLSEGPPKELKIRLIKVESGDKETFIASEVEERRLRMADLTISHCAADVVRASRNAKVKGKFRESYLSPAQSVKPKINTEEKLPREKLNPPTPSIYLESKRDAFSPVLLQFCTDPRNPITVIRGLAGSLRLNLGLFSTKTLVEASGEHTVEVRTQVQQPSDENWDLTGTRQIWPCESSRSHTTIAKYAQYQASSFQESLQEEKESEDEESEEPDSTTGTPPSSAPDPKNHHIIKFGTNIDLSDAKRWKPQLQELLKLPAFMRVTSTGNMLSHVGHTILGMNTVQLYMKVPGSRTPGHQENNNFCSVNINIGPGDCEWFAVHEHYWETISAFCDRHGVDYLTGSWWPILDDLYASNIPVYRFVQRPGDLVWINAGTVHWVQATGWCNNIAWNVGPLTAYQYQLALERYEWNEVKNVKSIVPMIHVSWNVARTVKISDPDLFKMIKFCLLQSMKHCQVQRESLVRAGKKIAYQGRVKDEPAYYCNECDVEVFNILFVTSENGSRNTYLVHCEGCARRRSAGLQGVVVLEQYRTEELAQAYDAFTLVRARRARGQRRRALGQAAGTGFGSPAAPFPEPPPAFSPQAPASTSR
Experimental: as §1
as §2, with “read. […]” for “read.”
BK27M3: Biotin-ATKAAR(Kme3)SAPATGGVKKPHRY-NH2? (Caslo, Denmark) […]
as §3

[4] = molecular target: T4, KDM7 (PHF8) (Homo sapiens, UniProt Q9UPP1); assay: Histone lysine demethylase AlphaLISA assay, KDM7; details: read-out: PHF8 HDME Inhibition IC50
T4 construct: KDM7 (PHF8); BRIC; 1-1322; Bac
T4 sequence (Q9UPP1 37-440 limits assumed): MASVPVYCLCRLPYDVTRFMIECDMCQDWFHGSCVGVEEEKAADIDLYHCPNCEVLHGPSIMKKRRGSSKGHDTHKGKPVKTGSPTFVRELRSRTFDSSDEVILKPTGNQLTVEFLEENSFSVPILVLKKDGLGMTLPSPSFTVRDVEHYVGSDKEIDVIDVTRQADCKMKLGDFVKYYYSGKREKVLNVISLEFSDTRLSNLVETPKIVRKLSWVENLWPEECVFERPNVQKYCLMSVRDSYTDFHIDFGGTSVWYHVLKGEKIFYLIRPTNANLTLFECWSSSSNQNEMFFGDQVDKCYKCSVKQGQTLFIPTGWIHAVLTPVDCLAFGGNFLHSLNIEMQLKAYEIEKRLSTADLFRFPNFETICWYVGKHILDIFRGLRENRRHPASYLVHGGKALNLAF
Experimental: as §1
as §2, with “read. […]” for “read.”
BK9M2: Biotin-ARTKQTAR(KMe2)STGGKAPRKQ-NH2 (AnaSpec 64359)
BK9M1: Biotin-ARTKQTAR(KMe1)STGGKAPRKQ-NH2 (AnaSpec 64358) […]
as §3

Row | Structure (SMILES) | pIC50 [1] | pIC50 [2] | pIC50 [3] | pIC50 [4]
1 | CCN(CC)CCCCNCc1cc(CNC(=O)C(F)(F)F)ccn1 [Compound 1, N-{[2-({[4-(diethylamino)butyl]-amino}methyl)pyridin-4-yl]methyl}-2,2,2-trifluoroacetamide] | > 6.60 | 5.60 to 6.60 | < 5.60 | 5.60 to 6.60
2 | CN(C)CCCNCc1cc(CN)ccn1 [Compound 3, [2-({[3-(dimethylamino)propyl]-amino}methyl)pyridin-4-yl]methanamine] | > 6.60 | 5.60 to 6.60 | < 5.60 | 5.60 to 6.60
3 | CCN(CCN(C)C)C(=O)CNCc1cc(CN)ccn1 [Compound 4, 2-({[4-(aminomethyl)pyridin-2-yl]methyl}amino)-N-[2-(dimethylamino)ethyl]-N-ethylacetamide] | > 6.60 | > 6.60 | < 5.60 | 5.60 to 6.60
4 | CCN(CC)CCCCNCc1cc(CN)ccn1 [Compound 5, [2-({[4-(diethylamino)butyl]-amino}methyl)pyridin-4-yl]methanamine] | < 5.60 | < 5.60 | < 5.60 | < 5.60
5 | CN(CCCn1cccn1)C(=O)CNCc1cc(/C=N/C2CC2)ccn1 [Compound 52, 2-[({4-[N-cyclopropyl-carboximidoyl]-pyridin-2-yl}methyl)amino]-N-methyl-N-[3-(1H-pyrazol-1-yl)propyl]acetamide] | > 6.60 | > 6.60 | < 5.60 | 
6 | CCN(CC)CCCCNCc1cc(/C=N\CCC2CCCCC2)ccn1 [Compound 67, (2-cyclohexylethyl)-({[2-({[4-(diethylamino)-butyl]amino}methyl)pyridin-4-yl]methylidene})-amine] | < 5.60 | > 6.60 |  | < 5.60
7 | CCN(CCN(C)C)C(=O)CNCc1cc(C2OCC(Cc3ccccc3)CN2C(=O)C(F)(F)F)ccn1 (stereo not drawn) [Compound 90, 2-[({4-[5-benzyl-3-(trifluoroacetyl)-1,3-oxazinan-2-yl]pyridin-2-yl}methyl)amino]-N-[2-(dimethylamino)-ethyl]-N-ethylacetamide] |  | > 6.60 |  | < 5.60
8 | CCN(CCN(C)C)C(=O)CNCc1cc(C2OCC3(CC3)CN2C(=O)C(F)(F)F)ccn1 (stereo not drawn) [Compound 91, N-[2--(dimethylamino)-ethyl]-N-ethyl-2-[({4-[7-(trifluoroacetyl)-5-oxa-7-azaspiro[2.5]-octan-6-yl]pyridin-2-yl}methyl)amino]-acetamide] |  | > 6.60 |  | < 5.60
9 | CN(Cc1ccccc1F)C(=O)CNCc1cc(/C=N/CCO)ccn1 [Compound 92, N-[(2-fluorophenyl)methyl]-2-[({4-[[(2-hydroxyethyl)imino]-methyl]pyridin-2-yl}methyl)amino]-N-methylacetamide] |  | 5.60 to 6.60 |  | < 5.60
10 | OCC/N=C/c1ccnc(CNCCc2ccccc2OCc2ccccc2)c1 [Compound 93, 2-[({2-[({2-[2-(benzyloxy)phenyl]-ethyl}amino)methyl]-pyridin-4-yl}methylidene)-amino]ethan-1-ol] |  | < 5.60 |  | < 5.60
11 | CCN(CCC#N)C(=O)CNCc1cc(/C=N/CCO)ccn1 [Compound 94, N-(2-cyanoethyl)-N-ethyl-2-[({4-[[(2-hydroxyethyl)imino]-methyl]pyridin-2-yl}methyl)amino]-acetamide] |  | > 6.60 |  | 5.60 to 6.60
12 | CC(C)C[C@H](NCc1cc(/C=N/CCO)ccn1)C(=O)N1CCCCC1 [Compound 95, (2S)-2-[({4-[[(2-hydroxyethyl)imino]-methyl]pyridin-2-yl}methyl)amino]-4-methyl-1-(piperidin-1-yl)pentan-1-one] |  | < 5.60 |  | 
13 | CN(C)CC1CCC(CNCc2cc(C=O)ccn2)CC1 (stereo not drawn) [Compound 97, 2-{[({4-[(dimethylamino)-methyl]cyclohexyl}-methyl)amino]-methyl}pyridine-4-carbaldehyde] |  | 5.60 to 6.60 | < 5.60 | < 5.60
14 | CN(C)C/C=C\CNCc1cc(C=O)ccn1 [Compound 99, 2-({[(2Z)-4-(dimethylamino)-but-2-en-1-yl]amino}methyl)-pyridine-4-carbaldehyde] |  | > 6.60 | < 5.60 | < 5.60
15 | CN1CCC(CNCc2cc(C=O)ccn2)CC1 [Compound 100, 2-({[(1-methyl-piperidin-4-yl)methyl]amino}-methyl)pyridine-4-carbaldehyde] |  | > 6.60 | < 5.60 | < 5.60
16 | CCN(CC)C(=O)CNCc1cc(C=O)ccn1 [Compound 105, N,N-diethyl-2-{[(4-formylpyridin-2-yl)methyl]amino}-acetamide] | > 6.60 | 5.60 to 6.60 | < 5.60 | 
17 | CN(C)CCCCNCc1cc(C=O)ccn1 [Compound 108, 2-({[4-(dimethylamino)-butyl]amino}methyl)-pyridine-4-carbaldehyde] |  | 5.60 to 6.60 | < 5.60 | < 5.60
18 | CN(C)CCNCc1cc(C=O)ccn1 [Compound 110, 2-({[2-(dimethylamino)-ethyl]amino}methyl)-pyridine-4-carbaldehyde] |  | 5.60 to 6.60 | < 5.60 | < 5.60
19 | CCN(CC)CCCCNC(=O)CNCc1cc(C=O)ccn1 [Compound 112, N-[4-(diethylamino)-butyl]-2-{[(4-formylpyridin-2-yl)methyl]amino}-acetamide] |  |  | < 5.60 | > 6.60
20 | CCN(CC)CCCCN(Cc1cc(C=O)ccn1)C(=O)C(F)(F)F [Compound 115, N-[4-(diethylamino)butyl]-2,2,2-trifluoro-N-[(4-formylpyridin-2-yl)methyl]acetamide] |  | < 5.60 | < 5.60 | 5.60 to 6.60
21 | CCN(CC(C)(C)N(C)C)C(=O)CNCc1cc(C=O)ccn1 [Compound 118, N-[2-(dimethylamino)-2-methylpropyl]-N-ethyl-2-{[(4-formylpyridin-2-yl)methyl]amino}-acetamide] |  | > 6.60 |  | 5.60 to 6.60
22 | CN(CC(=O)N1CCCCC1)Cc1cc(C=O)ccn1 [Compound 120, 2-({methyl[2-oxo-2-(piperidin-1-yl)ethyl]amino}-methyl)pyridine-4-carbaldehyde] |  | < 5.60 |  | 5.60 to 6.60
